Assay results taken from patent publication US11224666B2, “Gadolinium contrast agents, scavenging methods, and scavenging system” (Boston Scientific Scimed, Inc., priority 2018, dated 2022).

Test: example reaction demonstrating the sequestration reaction (strained alkyne with azide, in vitro, followed by NMR)
Conditions: allowed to react with azide-fluor 488 (representing a capture substrate), NMR tube

## OC[C@H]1[C@H]2CCC#CCC[C@@H]12 [(1R,8S,9s)-Bicyclonon-4-yn-9-ylmethanol]
  course of the sequestration (click) reaction: complete before a nuclear magnetic resonance (NMR) tube containing the reaction constituents could be inserted into the probe
